Assay results taken from patent US12172007B2, “Combination therapy of electric fields and an additional treatment for cancer and imaging” (University of Cincinnati, priority 2019, dated 2024).

Columns and labels:
[1] = system: non-small cell lung cancer (NSCLC); conditions: cited from earlier work
[2] = system: HER2-negative breast cancer; conditions: phase I, cited from earlier work
[3] = Relaxivity of contrast agent at 7 T; assay type: physicochemical
Source text: The use of a paramagnetic gadolinium chelate-loaded SapC-DOPS (Gd-DTPA-BSA/SapC-DOPS) vesicles as a targeted contrast agent for imaging glioblastoma multiforme tumors are also useful in the present invention. Gd-DTPA-BSA/SapC-DOPS vesicles and Gd-DTPA display a similar relaxivity of 3.32 and 2.80 (s·mM)−1, respectively, at 7 T. According to the in vivo experiments, the R1 values of the tumor before injection of Gd-DTPA-BSA/SapC-DOPS vesicles, sham injected brain, and contralateral normal brain were 0.4676±0.010 s−1, 0.5216±0.034 s−1, and 0.5596±0.003 s−1, respectively. […] At 24 h postinjection, the tumor R1 remained elevated (7.9±1.5%, P<0.05) compared with the normal and sham brains, but it was statistically similar to the controls (4.7±2.0%, p>0.05). […] At 4 h, 10 h, and 20 h, the increase in T1 relaxation time is higher in the sham normal brain compared with sham tumor. By 24 h postinjection, the T1-weighted signal is similar in both tissues.

relaxivity [3] [s/mM] | Molecule | overall survival, Bavituximab + docetaxel versus docetaxel alone ([1]; advanced, previously treated NSCLC, phase III) | overall survival versus placebo-treated patients ([1]; patients pre-treated with immune checkpoint inhibitors) | overall response rate ([2]; with paclitaxel as adjuvant therapy) [%] | tolerability ([2]; with paclitaxel)
 | Bavituximab: chimeric monoclonal antibody that binds to PS | no significant difference | increased overall survival | 85 | well tolerated
2.80 | O=C([O-])CN(CCN(CC(=O)[O-])CC(=O)O)CCN(CC(=O)[O-])CC(=O)O.[Gd+3] [Gd-DTPA] |  |  |  | 
